The source of these data is patent publication US11274328B2, “Methods for producing rebaudioside D and rebaudioside M and compositions thereof” (SICHUAN INGIA BIOSYNTHETIC CO., LTD., priority 2018, dated 2022).

For data set [1] the following is noted: relative to sucrose of the same weight; cited from earlier work.
Data set [2] can be described thus: Sensory analysis (triangle test), taste comparison with sucrose as control sample. Format: in vivo. Particulars: vs sucrose; for Difference (number of answers) / No difference (number of answers): aqueous solutions of same sweetness. The source says: The sweetener composition shall be tested, evaluated and analyzed by referring to Sensory Analysis Methodology (Triangular Test) (BS ISO 4120) and Sensory Analysis Method (Triangle Test) (GB/T 12311). The specific analysis method is as follows:
Method and principle: A group of three samples shall be provided to evaluators, two of which are identical and the evaluators shall select a single sample.
Preparation of test samples: Enough samples A and B shall be provided, and every three test samples are a group.
Sample groups with equal number of samples shall be prepared from laboratory samples in the following six combinations: ABB, AAB, ABA, BAA, BBA and BAB.
Test requirements: Evaluators shall not make conclusion as to the nature of samples from sample supply methods. All test sample groups shall be prepared in the same way [the same equipment, the same container, the same quantity of products and the same arrangement (triangle, straight line, etc.)]. In any sample group, the temperature of test samples shall be the same, and if possible, the temperature of all other sample groups in the test series provided shall also be the same. Test sample containers shall be numbered generally with three random digits. The number shall be different for each test.
Test techniques: Evaluators shall be notified of the test purpose to the extent that their conclusions are not biased. Groups of prepared samples shall be randomly assigned to the evaluators, then the evaluators shall check test samples of each group in the specified order, and the order shall be the same in the same series of tests. While evaluating three test samples in the same group, the evaluators shall have the opportunity to retest each sample. The test leader can tell the evaluators the quantity and volume of samples provided when necessary. When the number of evaluators is less than a multiple of 6, the following two approaches can be taken. (a) Discard redundant sample groups, or (b) Provide each evaluator with six groups of samples for retest.
When the evaluator cannot identify the difference, the answer “no difference” is allowed.
The number of “difference” or “no difference” answers shall be counted. When the number of evaluators (n) is greater than 100, the minimum number of answers needed to determine the significant difference in the triangle test at different significance levels (X) is calculated according to the following formula, and the nearest integer value shall be taken. Where, α is the significance level, which is an expected value.
The above evaluation and analysis methods were applied to analyze different compositions, with sucrose as the control sample. Samples and the control sample were prepared respectively into aqueous solutions with the same sweetness and then tested according to the requirements of the above-mentioned sensory analysis method. […]
Rebaudioside A (>97%), DM 3:1 mixture, DM 3:1 mixture-rebaudioside A (1:9, w/w), DM 3:1 mixture-rebaudioside A (9:1, w/w), DM 3:1 mixture-rebaudioside A (3:7, w/w) were analyzed according to the evaluation and analysis methods described above, with sucrose as the control sample. Samples and the control sample were prepared respectively into aqueous solutions with the same sweetness and then tested according to the requirements of the above-mentioned sensory analysis method. […]
Rebaudioside A (>97%), DM 3:1 mixture, DM 3:1 mixture-rebaudioside A (3:7, w/w), DM 3:1 mixture-rebaudioside A (7:3, w/w), DM 3:1 mixture-rebaudioside A (4:6, w/w) were analyzed according to the evaluation and analysis methods described above, with sucrose as the control sample. Samples and the control sample were prepared respectively into aqueous solutions with the same sweetness and then tested according to the requirements of the above-mentioned sensory analysis method. Effective evaluators are 125 primary evaluators, who were allowed to answer “no difference”. […]

Data set [3] is described as follows: Solubility of reb M in water and solvents. The data set is classed as physicochemical.
Data set [4] is described as follows: Heat and pH stability of reb M. Format: physicochemical.
Setting [5] is: Evaluation I, 135 primary evaluators.
Where [6] appears, read: Evaluation II, 135 primary evaluators.
Setting [7] is: Evaluation III, 125 primary evaluators.
Setting [8] is: Evaluation IV, 128 primary evaluators.

For “13-[(2O-β-D-glucopyranosyl-3-O-β-D-glucopyranosyl-β-D-glucopyranosyl)oxy]kaur-16-en18-oic acid, 2-O-β-D-glucopyranosyl-3-O-β-D-glucopyranosyl-β-D-glucopyranosyl ester [RD]”, the “Sweetness Multiple (1 for sucrose of the same weight)” value (“Sweetness Multiple” for short) in data set [1] was 150-250. Moreover, in data set [2] (setting [5]), the “Difference (number of answers)” value is recorded as 79, the “No difference (number of answers)” value was 56 and the “Conclusion (taste compared with sucrose)” value is on record as “Similar”.

Take `C=C1C[C@@]23CC[C@H]4[C@@](C)(CCC[C@@]4(C)C(=O)O[C@@H]4O[C@H](CO)[C@@H](O)[C@H](O)[C@H]4O)[C@@H]2CC[C@]1(O[C@@H]1O[C@H](CO)[C@@H](O)[C@H](O[C@@H]2O[C@H](CO)[C@@H](O)[C@H](O)[C@H]2O)[C@H]1O[C@@H]1O[C@H](CO)[C@@H](O)[C@H](O)[C@H]1O)C3` [RA, rebaudioside A]: in data set [1], the “Sweetness Multiple” value is listed as 350-450. Further, in data set [2] (setting [6]), the “Difference (number of answers)” value is recorded as 85, the “No difference (number of answers)” value is recorded as 50 and the “Conclusion (taste compared with sucrose)” value was “Dissimilar”. Besides, in data set [2] (setting [7]), the “Difference (number of answers)” value came to 78, the “No difference (number of answers)” value was determined as 47 and the “Conclusion (taste compared with sucrose)” value is listed as “Dissimilar”. Besides, in data set [2] (setting [8]), the “Difference (number of answers)” value was determined as 82, the “No difference (number of answers)” value worked out at 46 and the “Conclusion (taste compared with sucrose)” value is “Dissimilar”.

For the molecule `C=C1C[C@@]23CC[C@H]4[C@@](C)(CCC[C@@]4(C)C(=O)O[C@@H]4O[C@H](CO)[C@@H](O)[C@H](O[C@@H]5O[C@H](CO)[C@@H](O)[C@H](O)[C@H]5O)[C@H]4O[C@@H]4O[C@H](CO)[C@@H](O)[C@H](O)[C@H]4O)[C@@H]2CC[C@]1(O[C@@H]1O[C@H](CO)[C@@H](O)[C@H](O[C@@H]2O[C@H](CO)[C@@H](O)[C@H](O)[C@H]2O)[C@H]1O[C@@H]1O[C@H](CO)[C@@H](O)[C@H](O)[C@H]1O)C3` [RM], the “Sweetness Multiple” value in data set [1] is reported as 200-350. Also, in data set [3] (acetone, benzene, chloroform, and ether), the “solubility in organic solvents” value is “insoluble”. Besides, in data set [3] (diluted solutions of methanol, ethanol, n-propanol, and isopropanol), the “solubility in diluted alcohols” value is recorded as “soluble”. Further, in data set [3] (water, increases with an increase in temperature), the solubility in water result was “around 0.3%”. Also, in data set [2] (setting [5]), the “Difference (number of answers)” value was 97, the “No difference (number of answers)” value was found to be 38 and the “Conclusion (taste compared with sucrose)” value was “Dissimilar”. Besides, in data set [4], the “heat and pH stability” value is “heat and pH-stable”.

Regarding `C=C1C[C@@]23CC[C@H]4[C@@](C)(CCC[C@@]4(C)C(=O)O[C@@H]4O[C@H](CO)[C@@H](O)[C@H](O)[C@H]4O)[C@@H]2CC[C@]1(O[C@@H]1O[C@H](CO)[C@@H](O)[C@H](O)[C@H]1O[C@@H]1O[C@H](CO)[C@@H](O)[C@H](O)[C@H]1O)C3` [STv, stevioside, reference compound], the “Sweetness Multiple” value in data set [1] is recorded as 270-300.
